# Measured values from US6541506B1, “Antifungal enediynes” (Phytera Incorporated, priority 1999, dated 2003).
# Several values for one entry are separate records, joined by “and”; a condition that tells them apart may be missing. Equal entries are not always repeated.
# Experiments:
# [1] = test system: C. albicans strain #64 (sensitive to fluconazole); parameters: species or system mice; conditions: mouse, in vivo
# Description: Immunocompetent mice (ICR, Sprague-Dawley, Indianapolis, Ind.) are infected with a pathogenic strain (e.g., strain #64) of C. albicans that is sensitive to fluconazole. After 24 hours, dissemination of infection has been shown by organ colony counts (kidney, spleen, and liver) greater than 10^5 colony forming units (CFU). Treatment is begun 24 hours after infection with dosage once a day for 10 days. Untreated control mice usually die after about 16 days. After 30 days the percent survival in the group treated with fluconazole (40 mg per kg body weight, twice a day) is about 30%. In addition to measuring animal viability, the organ fungal load (in CFU) can measured.
# [2] = test system: C. albicans UTR-14 (fluconazole-resistant clinical isolate); assay: Fluconazole-resistant candidiasis in mice; type: in vivo; conditions: fluconazole-resistant C. albicans UTR-14, 40 mg per kg body weight p.o. twice daily
# Description: In a similar experiment using a fluconazole-resistant clinical isolate (e.g., C. albicans UTR-14), the percent survival after 20 days of the group treated with fluconazole (40 mg per kg body weight p.o. (twice daily)) and in the untreated group is each usually 0%.
# [3] = test system: C. albicans DSY1024; assay: Candida growth inhibition (XTT), C. albicans DSY1024; type: cell-based
# Description: (§1) There are numerous assays that can be used to measure the inhibition of growth of a fungus such as Candida. In one example, cultures of Candida, e.g., C. albicans strains DSY1024 and SC5314, C. krusei ATCC 6258, and C. glabrata ATCC 90030, are subcultured from cryopreserved stocks onto Sabouraud's dextrose agar plates. Blastoconidia are suspended into RPMI-MOPS medium and inoculated (500 cfu/well) into 96-well plates containing test compounds in a final volume of 100 μL/well. After 22 hours at 35° C., 25 μL of XTT (2,3-bis(2-methoxy-4-nitro-5-sulfophenyl)-5-(phenylamino)carbonyl]-2H-tetrazolium hydroxide), (100 μg/mL) with PMS (phenazine methyl sulfate, 5 μM) are added to each well, followed by 2 hours of shaking. Growth is assessed spectrophotometrically by measuring the appearance of soluble formazan stain at 450 nm using an Emax microplate reader. Validity of the assay is confirmed by determination of the C. albicans minimum inhibitory concentration (MIC) for known antifungal agents such as amphotericin B, 5-flucytosine, fluconazole, nikkomycin Z, and polyoxin D.
# LP416E8 (AC-05081-T4-3) was an organic extract of a manipulated plant cell culture from A. corsicum.
# [4] = test system: C. albicans SC5314; assay: Candida growth inhibition (XTT), C. albicans SC5314; type: cell-based
# Description: as §1
# [5] = test system: C. albicans 90028; assay: Candida growth inhibition, C. albicans 90028; type: cell-based
# Description: as §1
# [6] = test system: C. albicans A26; assay: Candida growth inhibition, C. albicans A26; type: cell-based
# Description: as §1
# [7] = test system: C. albicans #64; assay: Candida growth inhibition, C. albicans #64; type: cell-based
# Description: as §1
# (§2) Using the cell growth assay described herein, Compound 1 was tested for its ability to inhibit growth of C. albicans, C. kefyr, C. tropicalis, C. krusei, and C. glabrata.
# [8] = test system: C. albicans UTR-14; assay: Candida growth inhibition, C. albicans UTR-14; type: cell-based; conditions: C. albicans UTR-14, fluconazole-resistant strain
# Description: as §1, §2
# [9] = test system: C. albicans 93-1226; assay: Candida growth inhibition, C. albicans 93-1226; type: cell-based; conditions: C. albicans 93-1226, fluconazole-resistant strain
# Description: as §1, §2
# [10] = test system: C. keyfer 46764; assay: Candida growth inhibition, C. keyfer 46764; type: cell-based, C. kefyr
# Description: as §1, §2
# [11] = test system: C. tropicalis 623-20; assay: Candida growth inhibition, C. tropicalis 623-20; type: cell-based
# Description: as §1, §2
# [12] = test system: C. tropicalis 750; assay: Candida growth inhibition, C. tropicalis 750; type: cell-based
# Description: as §1, §2
# [13] = test system: C. tropicalis 97-1037; assay: Candida growth inhibition, C. tropicalis 97-1037; type: cell-based
# Description: as §1, §2
# [14] = test system: C. krusei 6258; assay: Candida growth inhibition, C. krusei 6258; type: cell-based
# Description: as §1, §2
# [15] = test system: C. krusei 97-1037; assay: Candida growth inhibition, C. krusei 97-1037; type: cell-based
# Description: as §1, §2
# [16] = test system: C. glabrata 90030; assay: Candida growth inhibition, C. glabrata 90030; type: cell-based
# Description: as §1, §2
# [17] = test system: C. glabrata 95-2421; assay: Candida growth inhibition, C. glabrata 95-2421; type: cell-based
# Description: as §1, §2
# [18] = test system: C. glabrata 95-2425; assay: Candida growth inhibition, C. glabrata 95-2425; type: cell-based
# Description: as §1, §2
# [19] = test system: S. cerevisiae AD1-9; assay: Anti-cell growth activity, S. cerevisiae AD1-9; type: cell-based
# Description: (§3) The anti-cell growth activity of Compound 1 on other fungal strains, as well as bacterial strains and cultured mammalian cells, was also tested (Table 3). […] Bacterial cell growth and mammalian cell growth was inhibited at substantially higher concentrations of Compound 1.
# [20] = test system: S. cerevisiae 2229-5C; assay: Anti-cell growth activity, S. cerevisiae 2229-5C; type: cell-based
# Description: as §3
# [21] = test system: A. fumigatus 8001; assay: Anti-cell growth activity, A. fumigatus 8001; type: cell-based, Aspergillus fumigatus
# Description: as §3
# [22] = test system: S. aureus 29213; assay: Anti-cell growth activity, S. aureus 29213; type: cell-based
# Description: as §3
# [23] = test system: E. faecalis 29212; assay: Anti-cell growth activity, E. faecalis 29212; type: cell-based
# Description: as §3
# [24] = test system: E. coli 700; assay: Anti-cell growth activity, E. coli 700; type: cell-based
# Description: as §3
# [25] = test system: HFF cells; assay: Anti-cell growth activity, cultured mammalian HFF cells; type: cell-based
# Description: as §3
# [26] = test system: T. rubrum; assay: Dermatophyte growth inhibition (microdilution, NCCLS M27A), T. rubrum; type: cell-based, Trichophyton rubrum
# Description: (§4) The compounds of the invention are also effective against dermatophytes. Testing was performed using a microdilution method based on the NCCLS M27A antifungal protocol. Compounds to be tested were prepared in DMSO and diluted to the appropriate concentration in RPMI 1640 medium (the dermatophyte growth medium). An inoculum of each test organism was prepared from oatmeal agar plates to contain 0.5-2.5×10^3 conidia/mL. One hundred microliters of the inoculum was added to each well of a 96-well microtiter plate containing 4 μL of a test compound and 96 μL of RPMI 1640. Terbinafine (sold under the brand name Lamisil®) was used as a positive control.
# [27] = test system: T. mentagrophytes; assay: Dermatophyte growth inhibition (microdilution, NCCLS M27A), T. mentagrophytes; type: cell-based
# Description: as §4
# [28] = test system: T. tonsurans; assay: Dermatophyte growth inhibition (microdilution, NCCLS M27A), T. tonsurans; type: cell-based
# Description: as §4
# [29] = test system: M. canis; assay: Dermatophyte growth inhibition (microdilution, NCCLS M27A), M. canis; type: cell-based, Microsporum canis
# Description: as §4
# [30] = test system: C. albicans, C. kefyr, C. tropicalis, C. krusei, and C. glabrata; assay: Candida growth inhibition, all tested strains (summary); type: cell-based, Candida spp.; conditions: range over all tested strains incl. fluconazole-resistant 93-1226 and UTR-14
# Description: as §1, §2
# [31] = test system: other fungal strains; assay: Anti-cell growth activity on other fungal strains (summary); type: cell-based; conditions: range over other fungal strains of Table 3
# Description: as §3
# [32] = test system: Candida; assay: Anti-Candida activity by backbone length; type: cell-based; conditions: X=7
# From the text: The variable X denotes the length of a saturated carbon backbone. The antifungal activity of the claimed compounds changes in part based on the length of this backbone. […] Preferably, X is an integer between 5 and 7, inclusive, although longer carbon chains (X=8-10) may preserve or increase antifungal activity.
# [33] = T. rubrum, four days at 35° C., visual inspection
# [34] = T. mentagrophytes, four days at 35° C., visual inspection
# [35] = T. tonsurans, four days at 35° C., visual inspection
# [36] = M. canis, four days at 35° C., visual inspection
structure (smiles),measurement,setting,value
OC(Cn1cncn1)(Cn1cncn1)c1ccc(F)cc1F [fluconazole],percent survival after 30 days,[1],about 30%
same,percent survival after 20 days,[2],0%
O=C(O)CCCCCC=CC#CC#Cc1ccco1 [Compound 2],IC50,[3]; C. albicans DSY1024 (Table 4),1.817 µg/mL
same,MIC,[3]; C. albicans DSY1024 (Table 4),3.125 µg/mL
same,inhibition of growth of strain SC5314,[4],able to inhibit growth
same,IC50,[4]; C. albicans SC5314 (Table 4),2.592 µg/mL
same,MIC,[4]; C. albicans SC5314 (Table 4),3.125 µg/mL
C/C=C\C#CC#C/C=C/C(O)CCCCCCCC(=O)O (stereo not drawn) [Compound 6],IC50,[3]; C. albicans DSY1024 (Table 4),11.3 µg/mL
same,MIC,[3]; C. albicans DSY1024 (Table 4),12.5 µg/mL
same,inhibition of growth of strain SC5314,[4],able to inhibit growth
same,IC50,[4]; C. albicans SC5314 (Table 4),8.5 µg/mL
same,MIC,[4]; C. albicans SC5314 (Table 4),12.5 µg/mL
O=C(O)CCCCCCC/C=C/C#CC#Cc1ccco1 [Compound 1],MIC,[3]; C. albicans DSY1024,0.0025 µg/mL
same,MIC,[4]; C. albicans SC5314,0.000625 µg/mL and 0.00125 µg/mL
same,IC50,[5],0.00122 µg/mL
same,IC50,[6],0.0011 µg/mL
same,IC50,[7],0.00145 µg/mL
same,MIC,[7],0.005 µg/mL
same,IC50,[8],0.00364 µg/mL
same,MIC,[8],0.0025 µg/mL
same,IC50,[9],0.0021 µg/mL
same,MIC,[9],0.0025 µg/mL
same,MIC,[10],0.01 µg/mL
same,IC50,[11],0.00296 µg/mL
same,MIC,[11],0.005 µg/mL
same,IC50,[12],0.00467 µg/mL
same,MIC,[12],0.005 µg/mL
same,IC50,[13],0.00368 µg/mL
same,MIC,[13],0.005 µg/mL
same,IC50,[14],0.0419 µg/mL
same,MIC,[14],0.05 µg/mL
same,IC50,[15],0.0261 µg/mL
same,MIC,[15],0.05 µg/mL
same,IC50,[16],0.0125 to 0.025 µg/mL
same,MIC,[16],0.005 µg/mL
same,IC50,[17],0.00825 µg/mL
same,MIC,[17],0.0125 µg/mL
same,IC50,[18],0.00313 to 0.00625 µg/mL
same,MIC,[18],0.0125 µg/mL
same,IC50,[19],0.18 µg/mL
same,MIC,[19],0.25 µg/mL
same,IC50,[20],0.5 to 1.0 µg/mL
same,MIC,[20],1 µg/mL
same,IC50,[21],50 to 100 µg/mL
same,MIC,[21],200 µg/mL
same,IC50,[22],31.6 µg/mL
same,MIC,[22],50 µg/mL
same,IC50,[23],7.5 µg/mL
same,MIC,[23],12.5 µg/mL
same,MIC,[24],>200 µg/mL
same,IC50,[25],12 µg/mL
same,MIC,[26]; [33],0.001 µg/mL
same,MIC,[27]; [34],0.001 µg/mL
same,MIC,[28]; [35],0.001 µg/mL
same,MIC,[29]; [36],0.001 µg/mL
same,"IC50 values, all tested Candida strains",[30],0.00035 to 0.042 µg/mL
same,"IC50 values, fungal growth, lower end of range",[31],≥ 0.18 µg/mL
same,anti-Candida activity (ranking by backbone length X),[32],greatest anti-Candida activity
O=C(O)CCCCCCC/C=C\C#CC#Cc1ccco1 [Compound 5],IC50,[3]; C. albicans DSY1024 (Table 4),0.0039 µg/mL
same,MIC,[3]; C. albicans DSY1024 (Table 4),0.0078 µg/mL
same,anti-Candida activity (ranking by backbone length X),[32],greatest anti-Candida activity
COC(=O)CCCCCCC/C=C\C#CC#Cc1ccco1 [Compound 7],IC50,[3]; C. albicans DSY1024 (Table 4),0.19 µg/mL
same,MIC,[3]; C. albicans DSY1024 (Table 4),0.25 µg/mL
same,inhibition of growth of strain SC5314,[4],able to inhibit growth
same,IC50,[4]; C. albicans SC5314 (Table 4),0.221 µg/mL
same,MIC,[4]; C. albicans SC5314 (Table 4),0.25 µg/mL
same,MIC,[26]; [33],0.125 µg/mL
same,MIC,[27]; [34],0.125 µg/mL
same,MIC,[28]; [35],0.125 µg/mL
same,MIC,[29]; [36],0.125 µg/mL
same,anti-Candida activity (ranking by backbone length X),[32],greatest anti-Candida activity
"CN(C/C=C/C#CC(C)(C)C)Cc1cccc2ccccc12 [Terbinafine, reference compound]",MIC,"[26]; Trichophyton rubrum, 96 h",0.002 µg/mL
same,MIC,"[27]; Trichophyton mentagrophytes, 96 h",0.004 µg/mL
same,MIC,"[28]; Trichophyton tonsurans, 96 h",0.015 µg/mL
same,MIC,"[29]; Microsporum canis, 96 h",0.015 µg/mL
O=C(O)CCCCCCC=CC#CC#Cc1ccco1 [Compound 3],IC50,[3]; C. albicans DSY1024 (Table 4),0.503 µg/mL
same,MIC,[3]; C. albicans DSY1024 (Table 4),1 µg/mL
same,MIC,[26]; [33],8.0 µg/mL
same,MIC,[27]; [34],2.0 µg/mL
same,MIC,[28]; [35],2.0 µg/mL
same,MIC,[29]; [36],2.0 µg/mL
